Assay results reported in PMC2784364, “VX-166: a novel potent small molecule caspase inhibitor as a potential therapy for sepsis” (Critical Care, 2009).
Where two headings read alike, the source gives them in different places.

Experiments:
granzyme B = biological target: T1, granzyme B (Homo sapiens, UniProt P10144); assay: Granzyme B counter-screen; type: biochemical; conditions: at 50 μM
T1 construct: purchased Merck Biosciences Ltd. (Nottingham, UK)
Description: (§1) Active recombinant caspase-1, -3, -4, -7 and -8 were prepared as described previously. Caspase-2 was purchased from Biomol (Exeter, UK), caspase-6 from BD Biosciences (Oxford, UK), caspase-9 from Europa Bioproducts Ltd. (Cambridge, UK) and caspase-10 from Chemicon International Inc. (Harrow, UK). Cathepsin B and granzyme B were purchased from Merck Biosciences Ltd. (Nottingham, UK). Fluorogenic protease substrates were purchased from Bachem Ltd. (St. Helens, UK). All reactions were carried out at 37°C using a Molecular Devices (Wokingham, UK) Gemini plate-reader at 460 nm (excitation wavelength of 390 nm). Caspase inhibition assays were conducted, with minor modifications, as described by Margolin and colleagues. Irreversible kinetics were analysed by calculations of second-order inactivation rate constants (k) using GraphPad (La Jolla, CA, USA) Prism 4.0 software. A larger number for an inactivation rate constant indicates a greater degree of inactivation. To determine the inhibitory effect on cathepsin B, 4.25 nM of the enzyme were added to 250 μM z-RR-AMC in 10 mM 2-morpholino-ethanesulfonic acid pH 6.0, 1 mM DTT, 1 mM EDTA and 0.03% Brij35 in the presence or absence of VX-166 and the reaction monitored continuously over 15 minutes. Granzyme B was assayed, with minor modifications, as described by Thornberry and colleagues. […]

cathepsin B = biological target: T2, cathepsin B (Homo sapiens, UniProt P07858); assay: Cathepsin B counter-screen; type: biochemical; conditions: highest concentration tested
T2 construct: purchased Merck Biosciences Ltd. (Nottingham, UK)
Description: as §1

[1] = system: IL-18 release from peripheral blood mononuclear cells; assay: IL-18 release from SAC-treated PBMC; type: cell-based; conditions: overnight
Description: Peripheral blood mononuclear cells (PBMC) from healthy donors were isolated by Ficoll-Paque gradient centrifugation from buffy coats obtained from the National Blood Transfusion Service (Bristol, UK). For IL-1β release, 5 × 10^5 cells/ml were then stimulated with 50 ng/ml lipopolysaccharide (LPS) from Escherichia coli (Sigma-Aldrich Ltd., Poole, UK) in the presence or absence of VX-166 and incubated for 18 hours. Secretion of IL-1β into the supernatant was determined by ELISA (R&D Systems, Abingdon, UK) following the manufacturer's instructions. For IL-18 release, 7.5 × 10^5 cells/ml were stimulated with 6.25 × 10^-4% (w/v) Staphylococcus aureus cell suspension (SAC; Sigma-Aldrich Ltd., Poole, UK) in the presence or absence of VX-166 and incubated overnight. The IL-18 content in the supernatants was quantified by ELISA (Caltag-MedSystems Ltd., Buckingham, UK) following the manufacturer's instructions. In both assays PBMC viability was assessed after the 18 hours incubation time using MTS assay (Promega UK Ltd., Southampton, UK) to ensure that the reduction in cytokine release was not caused by a cytotoxic effect of the compound.

[2] = system: human aorta endothelial cells (HAEC); assay: Apoptosis assay in human aorta endothelial cells, serum withdrawal, DNA fragmentation; type: cell-based; conditions: Endothelial cell, Serum withdrawal and nutrient deprivation, 48 hours, n = 4, read-out: IC50, inhibition of apoptosis
Description: Human aorta endothelial cells (HAEC) were purchased from Cambrex Bio Science Wokingham Ltd., (Wokingham, UK) and cultured as recommended by the supplier. Apoptosis was induced in 5 × 10^4 cells/ml by addition of medium deprived of serum and growth factors. VX-166 was added at a range of concentrations as described above and the cells incubated for 48 hours at 37°C in an atmosphere of 5% CO2/95% humidity. Apoptosis was measured using a Cell Death Detection ELISA kit (Roche Diagnostics Ltd., Lewes, UK) following the manufacturer's instructions.

IL-1β = assay: CLP rat, plasma IL-1β by ELISA; type: in vivo; conditions: 20 hours, 25 mg/ml pump, n = 10, P < 0.05
Description: CLP studies were performed in accordance with the National Institutes of Health guidelines for the use of experimental animals and were approved by the Institutional Animal Care and Use Committee of the Feinstein Institute for Medical Research. Adult male Sprague-Dawley rats (weighing 275 to 325 g, Charles River Laboratories, Wilmington, MA, USA) were fasted overnight then anaesthetised with isoflurane. The caecum was exposed via a 2 cm midline incision. It was ligated just distal to the ileocaecal valve, then punctured twice with an 18-gauge needle and gently squeezed to release a small amount of faecal material to ensure patency of the perforation sites before the abdominal incision was closed. Sham-operated rats underwent the same procedure with the exception that the caecum was neither ligated nor punctured. […]
Blood samples were centrifuged at 1500 g for 15 minutes at 4°C, the plasma was removed and stored at -80°C until analysis. Plasma IL-1β levels were determined by ELISA (R&D Systems Inc., Minneapolis, MN, USA) following the manufacturer's instructions. Plasma endotoxin levels were determined using a Limulus amebocyte lysate (LAL) kit (Associates of Cape Cod, Inc., East Falmouth, MA, USA) according to the manufacturer's instruction. […] The optical density was determined at 405 nm using a spectrophotometer. The levels of endotoxin were then calculated and expressed as EU/ml.

T1 sequence (P10144 21-247, species assumed): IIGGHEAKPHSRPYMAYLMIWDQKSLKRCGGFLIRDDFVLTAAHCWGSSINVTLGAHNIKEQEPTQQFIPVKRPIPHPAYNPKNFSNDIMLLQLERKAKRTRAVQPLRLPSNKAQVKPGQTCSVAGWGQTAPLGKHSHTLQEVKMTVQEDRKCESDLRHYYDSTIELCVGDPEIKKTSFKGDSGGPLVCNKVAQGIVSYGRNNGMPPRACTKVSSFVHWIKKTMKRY

`CCC(C(=O)NC(CC(=O)O)C(=O)COc1c(F)c(F)cc(F)c1F)n1cccc(NC(=O)OC)c1=O` (stereo not drawn) [VX-166] was tested, and the “inhibitory activity against granzyme B” value (granzyme B) was “did not show any inhibitory activity”, the inhibition at 50 µM (cathepsin B) was 19% and the IC50 ([1]; Homo sapiens, PBMC, n = 4, read-out: IC50 ± SD, inhibition of IL-18 release) was less than 500 nM. The IC50 ([1]; SAC-treated human PBMC, n = 4, read-out: IC50 ± SD, inhibition of IL-18 release) was 450 ± 170 nM, the IC50 [2] was 310 ± 70 nM and the “plasma IL-1β level vs vehicle CLP” value (IL-1β) was “significant reduction”.
